Data from PubChem BioAssay (NCI).
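Dose response: 5 concentrations. Exposure: 48 h. Format: 96-well plates. Endpoint: linear interpolation; highest concentration if not reached. GI50 is the concentration that inhibits growth by half. Definition used: TGI = concentration required for complete inhibition of growth.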

Assays:
Assay in all cases: NCI-60 cell line screen, 48 h
[1] = test system: 786-0 renal
[2] = test system: M14 melanoma
[3] = test system: HT29 colon
[4] = test system: BT-549 breast
[5] = test system: EKVX NSCLC
[6] = test system: CCRF-CEM leukemia
[7] = test system: OVCAR-3 ovarian
[8] = test system: TK-10 renal
[9] = test system: HOP-62 NSCLC
[10] = test system: SNB-75 CNS
[11] = test system: SK-MEL-2 melanoma
[12] = test system: HCT-116 colon
[13] = test system: A549 NSCLC
[14] = test system: NCI-H226 lung
[15] = test system: HS 578T breast
[16] = test system: A498 renal
[17] = test system: MDA-MB-231 breast
[18] = test system: DU-145 prostate
[19] = test system: PC-3 prostate
[20] = test system: SF-539 CNS
[21] = test system: UACC-257 melanoma
[22] = test system: MDA-MB-435
[23] = test system: SR leukemia
[24] = test system: UACC-62 melanoma
[25] = test system: HL-60(TB) leukemia
[26] = test system: SK-OV-3 ovarian
[27] = test system: SNB-19 CNS
[28] = test system: MCF7 breast
[29] = test system: HOP-92 NSCLC
[30] = test system: SK-MEL-28 melanoma
[31] = test system: NCI-H23 lung
[32] = test system: NCI/ADR-RES ovarian
[33] = test system: OVCAR-8 ovarian
[34] = test system: RPMI-8226 leukemia
[35] = test system: KM12 colon
[36] = test system: COLO 205 colon
[37] = test system: MALME-3M melanoma
[38] = test system: K-562 leukemia
[39] = test system: NCI-H522 lung
[40] = test system: T-47D breast
[41] = test system: SN12C renal
[42] = test system: ACHN renal
[43] = test system: SF-295 CNS
[44] = test system: RXF 393 renal
[45] = test system: CAKI-1 renal
[46] = test system: HCT-15 colon
[47] = test system: UO-31 renal
[48] = test system: LOX IMVI melanoma
[49] = test system: OVCAR-4 ovarian
[50] = test system: SF-268 CNS
[51] = test system: IGROV1 ovarian
[52] = test system: SW-620 colon
[53] = test system: HCC-2998 colon
[54] = test system: OVCAR-5 ovarian
[55] = test system: U251 CNS
[56] = test system: SK-MEL-5 melanoma
[57] = test system: MOLT-4 leukemia
[58] = test system: NCI-H460 lung

SMILES: CC(C)NC(=O)OCc1c(COC(=O)NC(C)C)c(-c2ccc[n+](COC(=O)C3CC3)c2)n2c1CCC2
- TGI [1]: > 100 µM
- TGI [2]: > 100 µM
- TGI [3]: > 100 µM
- TGI [4]: > 100 µM
- TGI [5]: > 100 µM
- TGI [6]: > 100 µM
- TGI [7]: > 100 µM
- TGI [8]: > 100 µM
- TGI [9]: > 100 µM
- TGI [10]: > 100 µM
- TGI [11]: > 100 µM
- TGI [12]: > 100 µM
- TGI [13]: > 100 µM
- TGI [14]: > 100 µM
- TGI [15]: > 100 µM
- TGI [16]: 88.1 µM
- TGI [17]: > 100 µM
- TGI [18]: > 100 µM
- TGI [19]: > 100 µM
- TGI [20]: > 100 µM
- TGI [21]: > 100 µM
- TGI [22]: > 100 µM
- TGI [23]: > 100 µM
- TGI [24]: > 100 µM
- TGI [25]: > 100 µM
- TGI [26]: > 100 µM
- TGI [27]: > 100 µM
- TGI [28]: > 100 µM
- TGI [29]: > 100 µM
- TGI [30]: > 100 µM
- TGI [31]: > 100 µM
- TGI [32]: > 100 µM
- TGI [33]: > 100 µM
- TGI [34]: > 100 µM
- TGI [35]: > 100 µM
- TGI [36]: > 100 µM
- TGI [37]: > 100 µM
- TGI [38]: > 100 µM
- TGI [39]: 63.1 µM
- TGI [40]: > 100 µM
- TGI [41]: > 100 µM
- TGI [42]: 82.7 µM
- TGI [43]: > 100 µM
- TGI [44]: > 100 µM
- TGI [45]: 89 µM
- TGI [46]: > 100 µM
- TGI [47]: > 100 µM
- TGI [48]: > 100 µM
- TGI [49]: > 100 µM
- TGI [50]: > 100 µM
- TGI [51]: > 100 µM
- TGI [52]: > 100 µM
- TGI [53]: > 100 µM
- TGI [54]: > 100 µM
- TGI [55]: > 100 µM
- TGI [56]: > 100 µM
- TGI [57]: > 100 µM
- TGI [58]: > 100 µM

SMILES: CCC(c1ccc(OC)cc1)C(CC)c1ccc(O)c(CN2CCCC2)c1 (centres undefined)
- GI50 [1]: 2.06 µM
- TGI [1]: 5.12 µM
- GI50 [2]: 2.15 µM
- TGI [2]: 5.08 µM
- GI50 [3]: 2.18 µM
- TGI [3]: 5.78 µM
- GI50 [4]: 3.27 µM
- TGI [4]: 11.5 µM
- GI50 [5]: 5.07 µM
- TGI [5]: 19.3 µM
- GI50 [6]: 3.56 µM
- TGI [6]: 13.5 µM
- GI50 [7]: 6.15 µM
- TGI [7]: 19.5 µM
- GI50 [8]: 2.35 µM
- TGI [8]: 10.8 µM
- GI50 [9]: 3.46 µM
- TGI [9]: 13.4 µM
- GI50 [10]: 3.28 µM
- TGI [10]: 15.5 µM
- GI50 [11]: 1.95 µM
- TGI [11]: 4.03 µM
- GI50 [12]: 3.44 µM
- TGI [12]: 12.5 µM
- GI50 [13]: 3.73 µM
- TGI [13]: 13.8 µM
- GI50 [14]: 5.9 µM
- TGI [14]: 24.7 µM
- GI50 [15]: 5.33 µM
- TGI [15]: 23.8 µM
- GI50 [16]: 2.51 µM
- TGI [16]: 11.1 µM
- GI50 [17]: 2.49 µM
- TGI [17]: 6.03 µM
- GI50 [18]: 5.8 µM
- TGI [18]: 19.1 µM
- GI50 [19]: 3.38 µM
- TGI [19]: 14.3 µM
- GI50 [20]: 4.16 µM
- TGI [20]: 15.6 µM
- GI50 [21]: 2.1 µM
- TGI [21]: 4.7 µM
- GI50 [22]: 2.01 µM
- TGI [22]: 4.76 µM
- GI50 [23]: 1.49 µM
- TGI [23]: 4.62 µM
- GI50 [24]: 2.07 µM
- TGI [24]: 4.97 µM
- GI50 [25]: 2.14 µM
- TGI [25]: 4.76 µM
- GI50 [26]: 3.68 µM
- TGI [26]: 12.9 µM
- GI50 [27]: 4.39 µM
- TGI [27]: 17.2 µM
- GI50 [28]: 2.74 µM
- TGI [28]: 6.47 µM
- GI50 [29]: 1.57 µM
- TGI [29]: 3.58 µM
- GI50 [30]: 2.04 µM
- TGI [30]: 4.57 µM
- GI50 [31]: 3.66 µM
- TGI [31]: 15.6 µM
- GI50 [32]: 5.92 µM
- TGI [32]: 22.3 µM
- GI50 [33]: 3.08 µM
- TGI [33]: 10.7 µM
- GI50 [34]: 2.24 µM
- TGI [34]: 6.28 µM
- GI50 [35]: 3.72 µM
- TGI [35]: 15.3 µM
- GI50 [36]: 1.81 µM
- TGI [36]: 3.71 µM
- GI50 [37]: 1.76 µM
- TGI [37]: 3.95 µM
- GI50 [38]: 1.61 µM
- TGI [38]: 5.59 µM
- GI50 [39]: 1.66 µM
- TGI [39]: 3.79 µM
- GI50 [40]: 2.1 µM
- TGI [40]: 6.4 µM
- GI50 [41]: 5.61 µM
- TGI [41]: 20.2 µM
- GI50 [42]: 4.57 µM
- TGI [42]: 18.5 µM
- GI50 [43]: 2.12 µM
- TGI [43]: 4.85 µM
- GI50 [44]: 2.81 µM
- TGI [44]: 7.55 µM
- GI50 [45]: 6.1 µM
- TGI [45]: 20 µM
- GI50 [46]: 3.09 µM
- TGI [46]: 10.7 µM
- GI50 [47]: 3.91 µM
- TGI [47]: 17 µM
- GI50 [48]: 2.04 µM
- TGI [48]: 4.74 µM
- GI50 [49]: 2.54 µM
- TGI [49]: 15.2 µM
- GI50 [50]: 5.6 µM
- TGI [50]: 21.5 µM
- GI50 [51]: 8.63 µM
- TGI [51]: 23.6 µM
- GI50 [52]: 2.99 µM
- TGI [52]: 9.07 µM
- GI50 [53]: 2.29 µM
- TGI [53]: 4.38 µM
- GI50 [54]: 12.3 µM
- TGI [54]: 27.8 µM
- GI50 [55]: 2.25 µM
- TGI [55]: 5.67 µM
- GI50 [56]: 1.74 µM
- TGI [56]: 3.22 µM
- GI50 [57]: 2.54 µM
- TGI [57]: 6.77 µM
- GI50 [58]: 3.41 µM
- TGI [58]: 11.6 µM
